From BindingDB's records for doi:10.1016/j.bmcl.2009.07.031 (Merck Research Laboratory, 2009) come the findings set out here.

The nature of assay [1]: Inhibition of HIV1 reverse transcriptase Y181C mutant by SPA assay.
A short description of assay [2]: Inhibition of HIV1 reverse transcriptase by SPA assay.

In the case of `NS(=O)(=O)c1ccc(NC(=O)CSC(=O)N2CCCc3cc(Cl)cc(Cl)c32)c(Cl)c1`, in assay [1], the IC50 (in general, the point on the concentration scale where inhibition reaches its midpoint) was 4 nM.

Consider `NS(=O)(=O)c1ccc(NC(=O)CSC(=O)N2CCCc3cccc(Cl)c32)c(Cl)c1`, for which the values for the IC50 in assay [2] and in assay [1] were 2 nM and 31 nM, respectively.

Take `Cc1ccc2c(c1)CCCN2C(=O)SCC(=O)Nc1ccc(S(N)(=O)=O)cc1Cl`: in assay [1], the midpoint of inhibition, the IC50, lay at 1300 nM.

Turning to `NS(=O)(=O)c1ccc(NC(=O)CNC(=O)N2CCCc3cc(Cl)cc(Cl)c32)c(Cl)c1`, in assay [2], the half-inhibitory concentration (IC50) came out at 336 nM.

With `NS(=O)(=O)c1ccc(NC(=O)CCC(=O)N2CCCc3cc(Cl)cc(Cl)c32)c(Cl)c1`, it took 194 nM to reach half-maximal inhibition in assay [2] (IC50).

Take `N#Cc1ccc(NC(=O)CSC(=O)N2CCCc3cc(Cl)cc(Cl)c32)c(Cl)c1`: the values for the IC50 in assay [2] and in assay [1] were 7 nM and 95 nM, respectively.

With `Cc1cccc2c1N(C(=O)SCC(=O)Nc1ccc(S(N)(=O)=O)cc1Cl)CCC2`, the results for the IC50 in assay [2] and in assay [1] were 6 nM and 61 nM, respectively.

With `NS(=O)(=O)c1ccc(NC(=O)COC(=O)N2CCCc3cc(Cl)cc(Cl)c32)c(Cl)c1`, the IC50 in assay [2] stood at 19 nM; in assay [1], 116 nM.

For the compound `NCCCNC(=O)c1ccc(NC(=O)CSC(=O)N2CCCc3cc(Cl)cc(Cl)c32)c(Cl)c1`, the 50% inhibitory concentration (IC50) in assay [2] is 2 nM; in assay [1], 7 nM.

Consider `CS(=O)(=O)c1ccc(NC(=O)CSC(=O)N2CCCc3cc(Cl)cc(Cl)c32)c(Cl)c1`, for which the concentration for half-maximal inhibition (IC50) in assay [2] was found to be 4 nM; in assay [1] it was 11 nM.

For `Cc1cc(C)c(N(C)C(=O)SCC(=O)Nc2ccc(S(N)(=O)=O)cc2Cl)c(C)c1`, the IC50 in assay [2] stood at 8 nM; in assay [1] it was 80 nM.

On to `O=C(CSC(=O)N1CCCc2cc(Cl)cc(Cl)c21)Nc1ccccc1Cl`, for which the 50% inhibitory concentration (IC50) worked out at 4 nM in assay [2] and 175 nM in assay [1].

`NS(=O)(=O)c1ccc(NC(=O)CSC(=O)N2CCCc3cc(Cl)ccc32)c(Cl)c1` came in with an IC50 in assay [2] of 8 nM.

For `O=C(CSC(=O)N1CCCc2cc(Cl)cc(Cl)c21)Nc1ccc(C(=O)NCc2ccccc2)cc1Cl`, the IC50 is 2 nM in assay [2] and 4 nM in assay [1].
